For series [1], the system named is hog liver carboxyesterase (HLE). The series is described as follows: Hog liver carboxyesterase (HLE)-catalyzed hydrolysis/deprotection followed by HPLC. The settings on record: for level of accumulation of the intermediate, of the initial concentration of 1: during HLE (26 units mL^-1) hydrolysis of 1, pH 7.5, 37 °C; for half-life at 0.4 mmol L^-1: hog liver carboxyesterase (HLE). The format is in vitro ADME. On the procedure:
The subsequent retro-aldol condensation of 14 to diester 4 ([M+H]^+ = 595.3; Reaction C) was, however, so fast that the amount of 14 remained less than 5% of the initial concentration of 1.
The reactions were carried out in sealed tubes immersed in a thermostated water bath (37.0 ± 0.1 °C). The oxonium ion concentration of the reaction solution (3.5 mL) was adjusted with glycine, 2-[4-(2-hydroxyethyl)piperazin-1-yl)]ethanesulfonic acid (HEPES) and 2-(N-morpholino)ethanesulfonic acid (MES) buffers. The ionic strength of the solutions was adjusted to 0.1 mol L^-1 with sodium chloride. The hydronium ion concentration of the buffer solutions was calculated with the aid of the known pKa values of the buffer acid under the experimental conditions. The initial substrate concentration was ca. 0.4 mmol L^-1.
The enzymatic hydrolysis was carried out with Hog Liver Esterase (26 units mL^-1) in a 2-[4-(2-hydroxyethyl)piperazin-1-yl)]ethanesulfonic acid (HEPES) buffer (0.040/0.024 mol L^-1) at pH 7.5 and 37 °C. The samples (200 μL) withdrawn at appropriate intervals were made acidic (pH 2) with 1 mol L^-1 aqueous hydrogen chloride to inactivate the enzyme and to quench the hydrolysis, cooled in an ice-bath and filtered with minisart RC 4 filters (0.45 μm). The composition of the samples was analyzed on an ODS Hypersil C18 column (4 × 250 mm 5 μm, flow rate 1 mL min^-1), using a mixture of acetic acid/sodium acetate buffer (0.045/0.015 mol L^-1) and MeCN, containing ammonium chloride (0.1 mol L^-1). A good separation of the product mixtures of 2 was obtained on using a 5 min isocratic elution with the buffer containing 2% MeCN, followed by a linear gradient (23 min) up to 40.0% MeCN. Signals were recorded on a UV-detector at a wavelength of 267 nm. The reaction products were identified by the mass spectra (LC/MS) using a mixture of water and acetonitrile containing a formic acid (0.1%) as an eluent (Gemini C18 column (2 × 150 mm 5 μm, flow rate 200 μL min^-1). The first order rate constants for the non-enzymatic hydrolysis of triester 1 were obtained by applying first-order rate-law to the diminution of the concentration of the starting material. The enzymatic deacetylations obeyed first-order kinetics at the high HLE concentrations employed.

Series [2] has the same test system. The series is described as follows: HLE-triggered hydrolysis in the presence of glutathione (GSH), followed by HPLC-ESI-MS. The series is classed as in vitro ADME. The settings on record: [GSH] = 5.4 mM. On the procedure:
The hydrolytic reactions of 1 was also carried out in the presence of glutathione ([GSH] = 5.4 mM) and carboxyesterase ([HLE] = 28.0 units mL^-1) in a 2-(N-morpholino)ethanesulfonic acid (MES) buffer (0.005/0.005 mol L^-1) at pH 6.2 and 37 °C. Under these conditions, the half-live for the deacetylation of 1 was 18 h. In 2 days, the starting material was converted almost quantitatively to a mixture of acetylated and deacetylated phosphodiester 4 and 16 ([4]/[16] is 1:1). At this stage, 2-cyano-N-(2-phenyl)ethylacrylamide (17) was captured as the glutathione conjugate (18; tR = 24.3 min, Route E). Product 18 was detected by both HPLC and LC-MS analysis ([M+H]^+ = 508.8; see Figure 3). In addition, glutathione was converted to its oxidized form glutathione disulfide (GSSG; [M+H]^+ = 613.5 and tR = 9.9 min).
The reactions were carried out in sealed tubes immersed in a thermostated water bath (37.0 ± 0.1 °C). The oxonium ion concentration of the reaction solution (3.5 mL) was adjusted with glycine, 2-[4-(2-hydroxyethyl)piperazin-1-yl)]ethanesulfonic acid (HEPES) and 2-(N-morpholino)ethanesulfonic acid (MES) buffers. The ionic strength of the solutions was adjusted to 0.1 mol L^-1 with sodium chloride. The hydronium ion concentration of the buffer solutions was calculated with the aid of the known pKa values of the buffer acid under the experimental conditions. […]

The nature of series [3]: Non-enzymatic hydrolysis (hydrolytic stability) in buffer followed by RP HPLC. The format is physicochemical. As to conditions: pH 7.5, 37 °C. The method, then: Hydrolysis of triester 1 was studied at pH 7.5 and 37 °C by analyzing the composition of the aliquots withdrawn from the reaction mixture at appropriate time intervals by RP HPLC. The products formed were identified by spiking with authentic samples and by mass spectrometric analysis (HPLC/ESI-MS). At pH 7.5-10, hydrolysis of the first acetic ester linkages of 1 (Reaction A in Scheme 4) was first-order in hydroxide-ion concentration. […] The subsequent departure of the remnants of this protecting group by retro-aldol condensation gave diester 4 (Route C) without accumulation of the monodeacetylated triester 14 as an intermediate. […]
The reactions were carried out in sealed tubes immersed in a thermostated water bath (37.0 ± 0.1 °C). […] The hydronium ion concentration of the buffer solutions was calculated with the aid of the known pKa values of the buffer acid under the experimental conditions. […]
The enzymatic hydrolysis was carried out with Hog Liver Esterase (26 units mL^-1) in a 2-[4-(2-hydroxyethyl)piperazin-1-yl)]ethanesulfonic acid (HEPES) buffer (0.040/0.024 mol L^-1) at pH 7.5 and 37 °C. […] The composition of the samples was analyzed on an ODS Hypersil C18 column (4 × 250 mm 5 μm, flow rate 1 mL min^-1), using a mixture of acetic acid/sodium acetate buffer (0.045/0.015 mol L^-1) and MeCN, containing ammonium chloride (0.1 mol L^-1). […]

On the set-up of series [4]: method as in PMID 19462989. As to conditions: non-enzymatic, cited from earlier work; for half-life for the disappearance: pH 7.5, 25 °C.
Series [5] deals with hog liver carboxyesterase (HLE). Also noted: method as in PMID 19462989. The settings on record: cited from earlier work.
Setting [6] is: HLE 26 units mL^-1, pH 7.5, 37 °C.
The mark [7] stands for this setting: HLE 26 units mL^-1, pH 7.5, 25 °C.

Like-named read-outs stand apart in the source and are kept apart here. Marks after values point to notes of the source that are not given here.

`Cc1cn(C2CC(O)C(COP(=O)(O)OCC(C#N)(CO)C(=O)NCCc3ccccc3)O2)c(=O)[nH]c1=O` (stereo not shown) [compound 16]: the “level of accumulation of the intermediate, of the initial concentration of 1” value in series [1] is recorded as “below 5%”.

`CC(=O)OCC(C#N)(COP(=O)(OCC1OC(n2cc(C)c(=O)[nH]c2=O)CC1O)OCC(C#N)(COC(C)=O)C(=O)NCCc1ccccc1)C(=O)NCCc1ccccc1` (stereo not shown) [compound 1, Thymidine 5´-bis[3-acetyloxy-2-cyano-2-(2-phenylethylcarbamoyl)propyl]phosphate]: the “conversion to 5´-TMP, times as fast as 3 (comparison of half-lives of Reaction D)” value in series [1] (HLE, pH 7.5, 37 °C) was 3 times. Besides, the half-life at 0.4 mmol L^-1 in series [1] (pig, HLE 26 units mL^-1, pH 7.5, 37 °C, I = 0.1 mol L^-1, read-out: t1/2 Reaction A (enzymatic deacetylation of triester, disappearance of starting material)) was 0.0633 h; in series [2] (hog, [HLE] = 28.0 units mL^-1, MES buffer, pH 6.2, 37 °C, read-out: half-life for the deacetylation (converted)), 18 h; in series [3] (aqueous buffer (glycine, HEPES or MES buffers), no enzyme, read-out: half-life, hydrolysis of the first acetic ester linkage (Reaction A) (converted)) it was 28 h. Further, in series [3], the “first-order rate constant k, hydrolysis of the first acetic ester linkage (Reaction A)” value came to 7e-06 s⁻¹.

As to `CCOC(=O)C(COCOC(C)=O)(COP(=O)(OC[C@H]1O[C@@H](n2cc(C)c(=O)[nH]c2=O)C[C@@H]1O)OCC(COCOC(C)=O)(C(=O)OCC)C(=O)OCC)C(=O)OCC` [compound 2, thymidine 5´-bis[3-acetyloxymethoxy-2,2-bis(ethoxycarbonyl)propyl]phosphate], the “half-life, first of the consecutive deacetylations” value in series [4] (pH 7.5, 37 °C) is on record as 32 h. In series [5] (setting [6]), the “t1/2 Reaction A” value was 0.17 min, the “t1/2 Reaction B” value was 0.90 min, the “t1/2 Reaction C” value was 10.4 min and the “t1/2 Reaction D” value was 3.5 h.

For `CC(=O)OCC(C#N)(COP(=O)(O)OCC1OC(n2cc(C)c(=O)[nH]c2=O)CC1O)C(=O)NCCc1ccccc1` (stereo not shown) [compound 4], in series [1] (hog, HLE 26 units mL^-1, pH 7.5, 37 °C, read-out: half-life for the disappearance (converted)), the half-life at 0.4 mmol L^-1 was 47 h.

`CCOC(=O)C(COC(C)=O)(COP(=O)(OC[C@H]1O[C@@H](n2cc(C)c(=O)[nH]c2=O)C[C@@H]1O)OCC(COC(C)=O)(C(=O)OCC)C(=O)OCC)C(=O)OCC` [compound 3, thymidine 5´-bis[3-acetyloxy-2,2-bis(ethoxycarbonyl)propyl]phosphate]: in series [4], the “half-life for the disappearance” value was 20 days. In addition, in series [5] (setting [7]), the “t1/2 Reaction B” value is recorded as 31^a min and the “t1/2 Reaction C” value is on record as 31^a min. In addition, in series [5] (setting [6]), the “t1/2 Reaction A” value is recorded as 3.2 min and the “t1/2 Reaction D” value was 151 h.

For the compound `C=C(C#N)C(=O)NCCc1ccccc1` [compound 17, 2-cyano-N-(2-phenylethyl)acrylamide], the “capture of the electrophilic by-product by glutathione” value in series [2] ([HLE] = 28.0 units mL^-1, pH 6.2, 37 °C, detected as conjugate 18) is reported as “largely trapped by glutathione”.

As to `CCOC(=O)C(COC(C)=O)(COP(=O)(O)OC[C@H]1O[C@@H](n2cc(C)c(=O)[nH]c2=O)C[C@@H]1O)C(=O)OCC` [compound 6], the “half-life for the disappearance” value in series [4] was 160.4 days.

With `CC(=O)OCC(C#N)(COP(=O)(OCC1OC(n2cc(C)c(=O)[nH]c2=O)CC1O)OCC(C#N)(CO)C(=O)NCCc1ccccc1)C(=O)NCCc1ccccc1` (stereo not shown) [compound 14], the “share of deacetylation to 15 (Reaction B) in the total disappearance of 14” value in series [1] (setting [6]) is “approximately 10%”. The “share of retro-aldol condensation to diester 4 in the overall breakdown of 14” value in series [1] (HLE, pH 7.5, 37 °C) is on record as 90%. The “level of accumulation of the intermediate, of the initial concentration of 1” value in series [1] is on record as “less than 5%”.

The values above are taken from article PMC6259260, “3-Acetyloxy-2-cyano-2-(alkylaminocarbamoyl)propyl Groups as Biodegradable Protecting Groups of Nucleoside 5´-mono-Phosphates” (Molecules, 2011).
